{
  "source": "patent US9980943B2",
  "about": "“Methods of treating muscular dystrophy” (BOARD OF REGENTS OF THE NEVADA SYSTEM OF HIGHER EDUCATION, …, priority 2013, dated 2018)",
  "key": {"[1]": {"test_system": "α7 integrin (LacZ reporter in α7LacZ+/− myoblasts)", "experiment": "qHTS of the LOPAC library and MLSMR (online screen, α7LacZ+/− myoblasts)", "conditions": "for activation at 0.307 µM / activation at 1.53 µM / activation at 7.66 µM / activation at 38.3 µM / Emax / EC50: Mus musculus, Myoblast; for activation at 0.307 µM: read-out: Activity at 0.307 uM [%] **; for activation at 1.53 µM: read-out: Activity at 1.530 uM [%] **; for activation at 7.66 µM: read-out: Activity at 7.660 uM [%] **; for activation at 38.3 µM: read-out: Activity at 38.30uM [%] **; for EC50: read-out: Fit LogAC50 (converted)"}, "[2]": {"test_system": "α7 integrin (LacZ reporter in α7+/LacZ myotubes)", "experiment": "Myotube α7 integrin FDG assay (Burkin assay in myotubes, 96-well)", "assay_type": "cell-based, mouse", "conditions": "myotubes"}, "[3]": {"conditions": "48 h, read-out: Fit Infinite Activity [%]"}},
  "note": "Read-outs that look alike come from different tables or passages of the source.",
  "data": [
    {"smiles": "CC(C)CC1NC(=O)N(CC(=O)N2c3ccccc3NC(=O)C2(C)C)C1=O", "note": "(stereo not shown) [Compound 21]", "values": [
      {"measurement": "activation at 0.307 µM", "setting": "[1]; 48 h", "value": 2.86, "unit": "%"},
      {"measurement": "activation at 1.53 µM", "setting": "[1]; 48 h", "value": 0, "unit": "%"},
      {"measurement": "activation at 7.66 µM", "setting": "[1]; 48 h", "value": 75.6, "unit": "%"},
      {"measurement": "activation at 38.3 µM", "setting": "[1]; 48 h", "value": 93.3, "unit": "%"},
      {"measurement": "Emax", "setting": "[1]; [3]", "value": 93.5, "unit": "%"},
      {"measurement": "EC50", "setting": "[1]", "value": 5.62, "unit": "µM"}
    ]},
    {"smiles": "O=C(Nc1ccc(Cl)cc1N1CCOCC1)C1CCCCC1", "note": "[Compound 53]", "values": [
      {"measurement": "activation at 0.307 µM", "setting": "[1]; 48 h", "value": 0, "unit": "%"},
      {"measurement": "activation at 1.53 µM", "setting": "[1]; 48 h", "value": 28.1, "unit": "%"},
      {"measurement": "activation at 7.66 µM", "setting": "[1]; 48 h", "value": 71.9, "unit": "%"},
      {"measurement": "activation at 38.3 µM", "setting": "[1]; 48 h", "value": 119, "unit": "%"},
      {"measurement": "Emax", "setting": "[1]; [3]", "value": 152, "unit": "%"},
      {"measurement": "EC50", "setting": "[1]", "value": 7.08, "unit": "µM"}
    ]},
    {"smiles": "CCCS(=O)(=O)N1CCCC(C(=O)c2cccc(Cl)c2)C1", "note": "(stereo not shown) [Compound 84]", "values": [
      {"measurement": "activation at 0.307 µM", "setting": "[1]; 48 h", "value": -5.29, "unit": "%"},
      {"measurement": "activation at 1.53 µM", "setting": "[1]; 48 h", "value": 11, "unit": "%"},
      {"measurement": "activation at 7.66 µM", "setting": "[1]; 48 h", "value": 59.7, "unit": "%"},
      {"measurement": "activation at 38.3 µM", "setting": "[1]; 48 h", "value": 102, "unit": "%"},
      {"measurement": "Emax", "setting": "[1]; [3]", "value": 114, "unit": "%"},
      {"measurement": "EC50", "setting": "[1]", "value": 6.31, "unit": "µM"},
      {"measurement": "Emax", "setting": "[1]; read-out: Max Response [%]", "value": 102, "unit": "%"}
    ]},
    {"smiles": "C[C@H]1CNC(=O)c2c(C(=O)Nc3ccc(CNC(=O)OC(C)(C)C)cc3)ncn21", "note": "[MLS003126425]", "values": [
      {"measurement": "Online Screen Fold-change", "setting": "[1]; MLSMR qHTS, myoblasts", "value": 1.9},
      {"measurement": "Online Screen Score", "setting": "[1]; MLSMR qHTS, myoblasts", "value": 43},
      {"measurement": "MT FOLD INCREASE", "setting": "[2]; maximum response", "value": 2.0, "unit": "fold"},
      {"measurement": "EC50", "setting": "[2]; nonlinear regression of dose-response curves, read-out: EC50 α7+/LacZ MT", "value": 7, "unit": "µM"}
    ]},
    {"smiles": "Oc1c(Br)cc(Br)cc1CNc1cccc2cccnc12", "note": "[Compound 110]", "values": [
      {"measurement": "activation at 0.307 µM", "setting": "[1]; 48 h", "value": -18.9, "unit": "%"},
      {"measurement": "activation at 1.53 µM", "setting": "[1]; 48 h", "value": -17.9, "unit": "%"},
      {"measurement": "activation at 7.66 µM", "setting": "[1]; 48 h", "value": 0, "unit": "%"},
      {"measurement": "activation at 38.3 µM", "setting": "[1]; 48 h", "value": 161, "unit": "%"},
      {"measurement": "Emax", "setting": "[1]; [3]", "value": 163, "unit": "%"},
      {"measurement": "EC50", "setting": "[1]", "value": 12.6, "unit": "µM"},
      {"measurement": "Emax", "setting": "[1]; read-out: Max Response [%]", "value": 161, "unit": "%"},
      {"measurement": "Score", "setting": "[1]; Table 8 Compound data", "value": 43}
    ]},
    {"smiles": "Cc1c(C(=O)O)cccc1-n1c(C)cc(/C=N/Nc2ccc([N+](=O)[O-])cn2)c1C", "note": "[Compound 9]", "values": [
      {"measurement": "Score", "setting": "[1]", "value": 85},
      {"measurement": "activation at 0.307 µM", "setting": "[1]; 48 h", "value": -24.5, "unit": "%"},
      {"measurement": "activation at 1.53 µM", "setting": "[1]; 48 h", "value": 6.29, "unit": "%"},
      {"measurement": "activation at 7.66 µM", "setting": "[1]; 48 h", "value": 68.1, "unit": "%"},
      {"measurement": "activation at 38.3 µM", "setting": "[1]; 48 h", "value": 88.7, "unit": "%"},
      {"measurement": "Emax", "setting": "[1]; [3]", "value": 92.2, "unit": "%"},
      {"measurement": "EC50", "setting": "[1]", "value": 2.82, "unit": "µM"},
      {"measurement": "Emax", "setting": "[1]; read-out: Max Response [%]", "value": 88.7, "unit": "%"}
    ]},
    {"smiles": "Cc1ccc(C2=C(CC(=O)O)C(=O)CC2)cc1", "note": "[Compound 86]", "values": [
      {"measurement": "activation at 0.307 µM", "setting": "[1]; 48 h", "value": 10.4, "unit": "%"},
      {"measurement": "activation at 1.53 µM", "setting": "[1]; 48 h", "value": 28.9, "unit": "%"},
      {"measurement": "activation at 7.66 µM", "setting": "[1]; 48 h", "value": 57.4, "unit": "%"},
      {"measurement": "activation at 38.3 µM", "setting": "[1]; 48 h", "value": 80.4, "unit": "%"},
      {"measurement": "Emax", "setting": "[1]; [3]", "value": 94.7, "unit": "%"},
      {"measurement": "EC50", "setting": "[1]", "value": 4.47, "unit": "µM"},
      {"measurement": "Emax", "setting": "[1]; read-out: Max Response [%]", "value": 80.4, "unit": "%"}
    ]},
    {"smiles": "CCCCNc1nnc(SCC(=O)c2c(N)n(CCC)c(=O)[nH]c2=O)s1", "note": "[Compound 69]", "values": [
      {"measurement": "activation at 0.307 µM", "setting": "[1]; 48 h", "value": 0, "unit": "%"},
      {"measurement": "activation at 1.53 µM", "setting": "[1]; 48 h", "value": 16.2, "unit": "%"},
      {"measurement": "activation at 7.66 µM", "setting": "[1]; 48 h", "value": 62.8, "unit": "%"},
      {"measurement": "activation at 38.3 µM", "setting": "[1]; 48 h", "value": 84.4, "unit": "%"},
      {"measurement": "Emax", "setting": "[1]; [3]", "value": 88.1, "unit": "%"},
      {"measurement": "EC50", "setting": "[1]", "value": 3.98, "unit": "µM"},
      {"measurement": "Emax", "setting": "[1]; read-out: Max Response [%]", "value": 84.4, "unit": "%"}
    ]},
    {"smiles": "O=C1CCc2cc(S(=O)(=O)Nc3ccc(C(F)(F)F)cc3)cc3c2N1CC3", "note": "[Compound 138]", "values": [
      {"measurement": "activation at 0.307 µM", "setting": "[1]; 48 h", "value": -26.1, "unit": "%"},
      {"measurement": "activation at 1.53 µM", "setting": "[1]; 48 h", "value": -19.1, "unit": "%"},
      {"measurement": "activation at 7.66 µM", "setting": "[1]; 48 h", "value": 23.6, "unit": "%"},
      {"measurement": "activation at 38.3 µM", "setting": "[1]; 48 h", "value": 85.8, "unit": "%"},
      {"measurement": "Emax", "setting": "[1]; [3]", "value": 108, "unit": "%"},
      {"measurement": "Emax", "setting": "[1]; read-out: Max Response [%]", "value": 85.8, "unit": "%"}
    ]},
    {"smiles": "COc1ccccc1OCC(=O)N/N=C1/C=C(C)CC1", "note": "[Compound 185]", "values": [
      {"measurement": "activation at 0.307 µM", "setting": "[1]; 48 h", "value": -21.6, "unit": "%"},
      {"measurement": "activation at 1.53 µM", "setting": "[1]; 48 h", "value": -24, "unit": "%"},
      {"measurement": "activation at 7.66 µM", "setting": "[1]; 48 h", "value": 0, "unit": "%"},
      {"measurement": "activation at 38.3 µM", "setting": "[1]; 48 h", "value": 94.5, "unit": "%"},
      {"measurement": "Emax", "setting": "[1]; [3]", "value": 94.2, "unit": "%"},
      {"measurement": "EC50", "setting": "[1]", "value": 10, "unit": "µM"},
      {"measurement": "Emax", "setting": "[1]; read-out: Max Response [%]", "value": 94.5, "unit": "%"}
    ]},
    {"smiles": "O=C(Nc1cc(Br)ccc1O)C1CC(c2ccccc2Cl)=NO1", "note": "(stereo not shown) [Compound 108]", "values": [
      {"measurement": "activation at 0.307 µM", "setting": "[1]; 48 h", "value": 2.03, "unit": "%"},
      {"measurement": "activation at 1.53 µM", "setting": "[1]; 48 h", "value": 3.14, "unit": "%"},
      {"measurement": "activation at 7.66 µM", "setting": "[1]; 48 h", "value": 15.3, "unit": "%"},
      {"measurement": "activation at 38.3 µM", "setting": "[1]; 48 h", "value": 141, "unit": "%"},
      {"measurement": "Emax", "setting": "[1]; [3]", "value": 142, "unit": "%"},
      {"measurement": "EC50", "setting": "[1]", "value": 12.6, "unit": "µM"},
      {"measurement": "Emax", "setting": "[1]; read-out: Max Response [%]", "value": 141, "unit": "%"}
    ]},
    {"smiles": "CCCC(=O)Nc1ccccc1NC(=O)c1ccc(OCC)cc1", "note": "[Compound 206]", "values": [
      {"measurement": "activation at 0.307 µM", "setting": "[1]; 48 h", "value": 12.1, "unit": "%"},
      {"measurement": "activation at 1.53 µM", "setting": "[1]; 48 h", "value": 15.3, "unit": "%"},
      {"measurement": "activation at 7.66 µM", "setting": "[1]; 48 h", "value": 28.5, "unit": "%"},
      {"measurement": "activation at 38.3 µM", "setting": "[1]; 48 h", "value": 91.2, "unit": "%"},
      {"measurement": "Emax", "setting": "[1]; [3]", "value": 91.9, "unit": "%"},
      {"measurement": "Emax", "setting": "[1]; read-out: Max Response [%]", "value": 91.2, "unit": "%"}
    ]}
  ]
}
